Experimental findings from patent US20090137411A1, “Methods and biochips for detecting small molecule compounds” (priority 2004, published 2009) are described below.

In one assay the test system is anti-morphine antibodies. Kind of assay: Qualitative screening of athlete urines on chip (morphine). It counts as binding, mouse. As to conditions: athlete urine samples containing the substance.
As for `COc1ccc2c3c1O[C@H]1[C@@H](O)CC[C@H]4[C@@H](C2)N(C)CC[C@@]341` [dihydrocodeine], the “Cross-reactivity with the anti-morphine antibodies” value was “Cross-reactivity with the anti-morphine antibodies”.

On to `CCOC(=O)C1(c2ccccc2)CCN(C)CC1` [pethidine], for which the “Cross-reactivity with the anti-morphine antibodies” value is “Cross-reactivity with the anti-morphine antibodies”.

A further assay deals with anti-drug mouse monoclonal antibodies. In words: Biochip competitive immunoassay for prohibited substances in urine. It counts as binding. The conditions noted are these: competitive immunoassay on chip.
As to `CC(N)Cc1ccccc1` (stereo not shown) [Amphetamine, amphetamine], the “Cutoff value (the 50% inhibitory concentration)” value stood at 5.2 µg/L.

For `C[C@H]1O[C@@H](O[C@H]2[C@@H](O)C[C@H](O[C@H]3[C@@H](O)C[C@H](O[C@H]4CC[C@@]5(C)[C@H](CC[C@@H]6[C@@H]5C[C@@H](O)[C@]5(C)[C@@H](C7=CC(=O)OC7)CC[C@]65O)C4)O[C@@H]3C)O[C@@H]2C)C[C@H](O)[C@@H]1O` [Digoxin, digoxin], the “Cutoff value (the 50% inhibitory concentration)” value was 2.8 µg/L.

As to `CN[C@@H](C)Cc1ccccc1` [Methamphetamine], the “Cutoff value (the 50% inhibitory concentration)” value amounted to 4.0 µg/L.

Consider `C[C@]12CC[C@H]3[C@@H](CCC4=CC(=O)CC[C@@]43C)[C@@H]1CC[C@@H]2O` [Testosterone], for which the “Cutoff value (the 50% inhibitory concentration)” value stood at 0.6 µg/L.

With gentamicin, the “Cutoff value (the 50% inhibitory concentration)” value stood at 2.5 µg/L.
